Columns and labels:
[1] = tested on: metaphysis of the left tibia; details: daily intraosseous injections for 14 days; cited from earlier work
[2] = tested on: Male Sprague-Dawley rats; assay: Rat periosteal injection model (local injection onto femur subperiosteum); format: in vivo; details: for BMC: right femur, DEXA
Procedure: Male Sprague-Dawley rats at 3 weeks of age were used. The rats were anesthetized with isoflurane inhalation (2-3 minutes) in a conduction chamber located in a fume hood. The right hindlimb of each rat was shaved and cleaned. A 26 G needle attached with a hamilton syringe pre-filled with testing solution was used for the local injection. The solution was injected onto the subperiosteum of the anterior, mid-diaphyseal region of the femur in a volume of 5 to 10 ul for various days. On day 15, the rats were sacrificed and the femurs were collected for analysis. Periosteal bone induction was assessed by using radiography, dual-energy X-ray absorptiometry (DEXA) and/or peripheral quantitative computed tomography (pQCT), and histomorphometry. (Michael E, Joyce, Anita B. Roberts, Michael B. Sporn, and Mark Bolander, “Transforming growth factor-β and the initiation of chondrogenesis and osteogenesis in the rat femur,” The Journal of Cell Biology 110:2195-2207 (1990)).
The right femurs of male Spray-Dawley rats were injected with either vehicle or test compound for 1, 3, 7, and 14 days, respectively. The solution was prepared using 2% glycine as vehicle at pH of approximately 7.8-7.9. All rats were sacrificed on day 15 and the right femurs were collected for analysis. […] The test compound was (3-(((4-tert-butyl-benzyl)-(pyridine-3-sulfonyl)-amino)-methyl)-phenoxy)-acetic acid, sodium salt;
The right femur of each rat was injected with test compound for 3, 7 and 14 days, respectively. The left femur of each rat was injected with vehicle to serve as its own control. The solution was prepared using 2% glycine as vehicle at pH of approximately 7.8-7.9. Drug concentration was 80 mg/ml. The injected volume was 5 μl/rat/d (0.4 mg/rat/d). All rats were sacrificed on day 15 and both right and left femurs were collected for analysis. […] The test compound was 7-{[2-(3,5-dichloro-phenoxy)-ethyl]-methanesulfonyl-amino}-heptanoic acid.

[3] = tested on: beagle male dogs; assay: Ulnar segmental defect model, enhancement of bone healing in dog; format: in vivo
Procedure: It is clinically complex to heal segmental bone loss and non-union after fractures or reconstructive surgery. […] The following is a description of the ulnar segmental defect model used to evaluate bone healing in 11±1 kg beagle male dogs, 13 months old.
Beagle dogs were treated with antiparasitics one week before surgery and were given two doses of Baypamun (Bayer), 72 and 24 hours before the operation. Dogs were divided into four groups of eight animals.
Group A: 2 ml of phosphate buffered saline (PBS) was injected into the defect area filled with two helistat pre-cut sponges ([…]; 2.5×5 cm) 24, 48 and 72 hours following surgery.
Group B: 100 mg preparation of test compound was injected into the defect area filled with two helistat pre-cut sponges ([…]; 2.5×5 cm) 24 hours following surgery and for three consecutive days (24, 48 and 72 hours).
Group C: 100 mg preparation of test compound was injected into the defect area filled with two helistat pre-cut sponges ([…]; 2.5×5 cm) beginning 24 hours following surgery and daily thereafter for seven consecutive days.
Group D: 100 mg preparation of test compound was injected into the defect area filled with two helistat pre-cut sponges ([…]; 2.5×5 cm) 24 hours following surgery and daily thereafter for 14 days.
With animals under general anesthesia, the foreleg was prepped and draped in sterile fashion. A lateral incision approximately 10 cm in length was made and the ulna was exposed extraperiostally. Periosteum was cut and moved to the proximal and distal parts of the incision. Then 1.5 cm segmental defect was made in the midulna using a pendular saw. The radius and the remaining interosseal membrane were left intact. The defect site was irrigated with saline to remove bone debris. […] Both created bone ends were firmly stable and the radius served as a weight-bearing bone during the recovery process.
The site was then filled with the two helistat sponges as described above. In particular two Helistat sponges sized 2.5 times 5 cm were rolled to form a cylinder which was secured outside with fibrin net and two resorbable sutures. In that way subsequent dermal injections had larger areas of absorption. The soft tissues were meticulously closed in layers to aid the sponges. Injections were administered via dermal suture markers in such a way that the needle reached the opposing radius and then pulled back for approximately 5 mm. The total volume per injection was 2 ml consisting either of vehicle (PBS) or test compound in PBS. Following surgery animals were allowed full weight-bearing activity, water and food ad libitum. Radiographs of the forelimbs were obtained immediately following surgery and every two weeks thereafter until the termination of the study. Radiographs were graded on a 0 to 6 scale (Table A).
Dogs were sacrificed 12 weeks following surgery and the ulna was carefully dissected and fixed in 10% buffered formalin for histological analysis. As expected none of the control dogs re-bridged the defect confirming that the defect was a critical sized defect (Table B). Moreover, the non-union was pronounced permanent at the termination of the study since no significant progress in radiographs was observed between four and twelve weeks following surgery. In the 3-injections groups, none of the defects were re-bridged at the termination of the study. […] Radiographic scoring indicated a score between 2 and three for the dogs in this group.

[4] = tested on: beagles; details: 0.2 mg/kg in 10% ethanol into defect site twice a day for 10 days; cited from earlier work
[5] = tested on: dogs; details: local infusion for 3 weeks, 500 to 2000 μg per week; cited from earlier work
[6] = tested on: adult beagles; details: 0.2 mg in 0.5 ml injected into fracture sites twice a day for 10 days; cited from earlier work
[7] = 14-injections group, eight dogs
[8] = Group D: 100 mg daily for 14 days, 12 weeks after surgery

## CCCCC[C@H](O)/C=C/[C@H]1[C@H](O)CC(=O)[C@@H]1C/C=C\CCCC(=O)O [PGE2, Prostaglandin E2]
[1]
  trabecular bone in the metaphysis: significant increase of trabecular bone

## CS(=O)(=O)N(CCCCCCC(=O)O)CCOc1cc(Cl)cc(Cl)c1 [7-{[2-(3,5-dichloro-phenoxy)-ethyl]-methanesulfonyl-amino}-heptanoic acid]
[2]; 3-day treatment, eight femurs, 80 mg/ml, 5 μl/rat/d (0.4 mg/rat/d), left femur vehicle control
  local bone formation by radiography: did not show evidence for increase bone formation locally
[2]; 7-day treatment, 80 mg/ml, 5 μl/rat/d (0.4 mg/rat/d), left femur vehicle control
  femurs showing increased calcified area by radiography: Two out of eight
[2]; 14-day treatment, 80 mg/ml, 5 μl/rat/d (0.4 mg/rat/d), left femur vehicle control
  femurs showing increased calcified area locally compared to controls by radiography: All femurs (n=8)

## CC(C)(C)c1ccc(CN(Cc2cccc(OCC(=O)[O-])c2)S(=O)(=O)c2cccnc2)cc1.[Na+] [CP, (3-(((4-tert-butyl-benzyl)-(pyridine-3-sulfonyl)-amino)-methyl)-phenoxy)-acetic acid, sodium salt]
[3]; 3-injections group
  defects re-bridged at termination of the study: none
  histological analysis of newly formed bone: complete mineralization of the newly formed bone
  new bone induction (osteoconduction and periosteal reaction): observed in all the dogs
[3]; 7-injections group
  bone formation in the defect area: Both endosteal and periosteal bone formation was observed
  dogs showing full re-bridgement: none
  histological analysis of newly formed bone: fully mineralized
[3]; 14-injections group
  dogs showing full re-bridgement by x-rays and histology: two of the eight
[3]; [7]
  dogs with large amount of new bone formation in defect area but defect not completely filled: Three other dogs
  dogs with relatively less bone formation, pronounced non-responders: Three dogs
[3]; Group B: 100 mg, 3 injections, 12 weeks after surgery
  Bridging/8 dogs: 0/8
[3]; Group C: 100 mg daily for 7 days, 12 weeks after surgery
  Bridging/8 dogs (medial healing): 1/8 showed medial healing
[3]; Group D: 100 mg daily for 14 days, 0 to 6 scale
  Radiographic Grading/8 dogs: 4-6
[3]; [8]
  Bridging/8 dogs (good bridging): 4/8
  dogs showing almost complete healing: Three
[2]; 1 day of dosing, sacrifice day 15
  BMC: 0.0469 ± 0.0030 g
[2]; 3 days of dosing, sacrifice day 15
  BMC: 0.0446 ± 0.0064 g
[2]; 7 days of dosing, sacrifice day 15
  BMC: 0.0485 ± 0.0054 g
[2]; 14 days of dosing, sacrifice day 15
  BMC: 0.0533 ± 0.0044 g
[2]; 14 days of treatment, sacrifice day 15
  excess calcified mass on anterior aspect of right femur, radiography: became significant
[2]; injected for 7 days, sacrifice day 15
  excess calcified mass on anterior aspect of right femur, radiography: started to show excess calcified mass
[2]; one- or three-day treatment, sacrifice day 15
  periosteal bone formation: did not result in periosteal bone formation
[2]; vs vehicle-treated rats (Table I)
  defined region bone area and bone mineral content (BMC) by DEXA compared to vehicle: significantly increased

## CCCCC[C@H](O)/C=C/[C@H]1[C@H](O)CC(=O)[C@@H]1CCCCCCC(=O)O [PGE1, prostaglandin E1]
[4]
  periosteal and cortical endosteal bone formation: more periosteal and cortical endosteal bone formation
[5]
  alveolar bone formation in the mandible: produced a dramatic, localized formation of alveolar bone
[6]
  bone matrix formation at fracture site: induced bone matrix formation on the periosteal envelope
